The values below come from patent publication US8987467B2, “Substituted pyrazole azetidines as sphingosine receptor modulators” (Allergan, Inc., priority 2013, dated 2015).

The target in this test is T1, human S1P1 receptor (Homo sapiens, UniProt P21453).
T1 construct: expressed in transfected cells; membranes used
T1 sequence (P21453 whole entry): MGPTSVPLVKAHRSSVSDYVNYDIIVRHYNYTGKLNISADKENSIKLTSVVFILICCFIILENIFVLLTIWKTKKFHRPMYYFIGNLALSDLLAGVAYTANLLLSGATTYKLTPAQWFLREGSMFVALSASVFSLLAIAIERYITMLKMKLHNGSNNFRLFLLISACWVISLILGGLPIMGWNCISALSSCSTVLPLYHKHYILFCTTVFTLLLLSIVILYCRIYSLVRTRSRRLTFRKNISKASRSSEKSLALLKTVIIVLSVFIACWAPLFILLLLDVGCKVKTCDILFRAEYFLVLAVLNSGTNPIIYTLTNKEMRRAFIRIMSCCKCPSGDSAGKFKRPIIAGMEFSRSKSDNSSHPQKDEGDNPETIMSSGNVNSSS
The experiment in a line: GTP γ35S binding assay for S1P1 activity. The settings on record: membranes of cells stably expressing the S1P1 receptor; test concentrations 0.08 to 5,000 nM; 30 min at 25° C.; read-out: S1P1 EC50 (Activity potency: S1P1 receptor from GTP γ35S). It counts as biochemical. The method, then: Compounds were tested for S1P1 activity using the GTP γ^35S binding assay. These compounds may be assessed for their ability to activate or block activation of the human S1P1 receptor in cells stably expressing the S1P1 receptor.
GTP γ^35S binding was measured in the medium containing (mM) HEPES 25, pH 7.4, MgCl2 10, NaCl 100, dithiothreitol 0.5, digitonin 0.003%, 0.2 nM GTP γ^355, and 5 μg membrane protein in a volume of 150 μl. Test compounds were included in the concentration range from 0.08 to 5,000 nM unless indicated otherwise. Membranes were incubated with 100 μM 5′-adenylylimidodiphosphate for 30 min, and subsequently with 10 μM GDP for 10 min on ice. Drug solutions and membrane were mixed, and then reactions were initiated by adding GTP γ^355 and continued for 30 min at 25° C. Reaction mixtures were filtered over Whatman GF/B filters under vacuum, and washed three times with 3 mL of ice-cold buffer (HEPES 25, pH 7.4, MgCl2 10 and NaCl 100). Filters were dried and mixed with scintillant, and counted for ^35S activity using a β-counter. Agonist-induced GTP γ^355 binding was obtained by subtracting that in the absence of agonist. Binding data were analyzed using a non-linear regression method. In case of antagonist assay, the reaction mixture contained 10 nM S1P in the presence of test antagonist at concentrations ranging from 0.08 to 5000 nM.
In general terms: GTPγS is a poorly hydrolysed GTP analogue; its binding reports G protein activation.
For the compound `CCN1N=C(c2nc(-c3ccc(CN4CC(C(=O)O)C4)cc3)no2)CC1c1ccccc1` (stereo not shown) [Compound 1, 1-{4-[5-(1-ethyl-5-phenyl-4,5-dihydro-1H-pyrazol-3-yl)-1,2,4-oxadiazol-3-yl]benzyl}azetidine-3-carboxylic acid], the concentration giving a half-maximal response (EC50) stood at 252 nM. As for `CCN1N=C(c2nc(-c3cc(F)c(CN4CC(C(=O)O)C4)c(F)c3)no2)CC1c1ccccc1` (stereo not shown) [Compound 4, 1-{4-[5-(1-ethyl-5-phenyl-4,5-dihydro-1H-pyrazol-3-yl)-1,2,4-oxadiazol-3-yl]-2,6-difluorobenzyl}azetidine-3-carboxylic acid], the figure is 51 nM; as for `CCCN1N=C(c2nc(-c3ccc(CN4CC(C(=O)O)C4)cc3)no2)CC1c1ccccc1` (stereo not shown) [Compound 6, 1-{4-[5-(5-phenyl-1-propyl-4,5-dihydro-1H-pyrazol-3-yl)-1,2,4-oxadiazol-3-yl]benzyl}azetidine-3-carboxylic acid], 75 nM; as for `CCc1cc(-c2noc(C3=NN(CC)C(c4ccccc4)C3)n2)ccc1CN1CC(C(=O)O)C1` (stereo not shown) [Compound 5, 1-{2-ethyl-4-[5-(1-ethyl-5-phenyl-4,5-dihydro-1H-pyrazol-3-yl)-1,2,4-oxadiazol-3-yl]benzyl}azetidine-3-carboxylic acid], 24 nM.

By EC50 is commonly meant the concentration giving half of the maximal effect.
